Source: US10988478B1, “Pyrazolo[1,5a]pyrimidine derivatives as IRAK4 modulators” (Genentech, Inc., priority 2015, dated 2021)

Target: human IRAK4 (Homo sapiens (Human), UniProt Q9NWZ3)
Assay: IRAK4 kinase inhibition, Transcreener fluorescence polarization ADP assay
Type: biochemical
Conditions: recombinant full-length His6-IRAK4; 125 uM ATP; 90 min; Ki computed using ATP Km 642 uM
Procedure: Compounds were assayed for inhibition of human IRAK4 and IRAK1 catalytic activity using recombinant enzyme produced from insect cells. Full-length IRAK4 protein, carrying an N-terminal His6-Tag, was obtained from Life Technologies (Carlsbad, Calif., USA). The IRAK1 construct was produced internally and was comprised of IRAK1 residues Arg194 to Ser712, preceded by an NH2-terminal His6 tag and the coding sequence for glutathione-S-transferase.

human IRAK4, sequence (Q9NWZ3 whole entry): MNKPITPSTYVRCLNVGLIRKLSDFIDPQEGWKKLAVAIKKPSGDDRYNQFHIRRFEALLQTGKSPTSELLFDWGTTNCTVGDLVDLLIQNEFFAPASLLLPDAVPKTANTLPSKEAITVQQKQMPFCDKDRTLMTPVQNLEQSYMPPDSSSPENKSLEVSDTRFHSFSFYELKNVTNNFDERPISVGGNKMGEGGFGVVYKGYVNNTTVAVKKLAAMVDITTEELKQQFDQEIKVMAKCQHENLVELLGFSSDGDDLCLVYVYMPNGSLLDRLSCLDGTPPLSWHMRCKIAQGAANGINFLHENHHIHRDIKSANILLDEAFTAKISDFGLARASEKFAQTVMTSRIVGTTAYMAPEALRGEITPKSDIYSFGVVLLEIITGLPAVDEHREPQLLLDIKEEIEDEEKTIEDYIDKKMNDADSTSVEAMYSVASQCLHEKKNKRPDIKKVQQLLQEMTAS

Ki [nM] | Compound
680 | CC1(C)CS(=O)(=O)c2cc(N3CCOCC3)c(NC(=O)c3cnn4cccnc34)cc2N1 [Example 403, N-(3,3-Dimethyl-7-morpholino-1,1-dioxido-3,4-dihydro-2H-benzo[b][1,4]thiazin-6-yl)pyrazolo[1,5-a]pyrimidine-3-carboxamide]
29 | O=C(Nc1cc2c(cc1N1CCOCC1)C(=O)N(C1COC1)C2)c1cnn2cccnc12 [Example 251, N-[6-Morpholino-2-(oxetan-3-yl)-1-oxo-isoindolin-5-yl]pyrazolo[1,5-a]pyrimidine-3-carboxamide]
6.7 | Cc1oc(=O)[nH]c1CN1CCN(c2cc3c(cc2NC(=O)c2cnn4cccnc24)CC(C)(C)O3)CC1 [Example 479, N-[2,2-Dimethyl-6-[4-[(5-methyl-2-oxo-3H-oxazol-4-yl)methyl]piperazin-1-yl]-3H-benzofuran-5-yl]pyrazolo[1,5-a]pyrimidine-3-carboxamide]
16 | C[C@]1(CO)Cc2cc(NC(=O)c3cnn4cc(F)cnc34)c(N3CCOCC3)cc2O1 [Example 54, (R)-6-Fluoro-N-(2-(hydroxymethyl)-2-methyl-6-morpholino-2,3-dihydrobenzofuran-5-yl)pyrazolo[1,5-a]pyrimidine-3-carboxamide]
36 | CC1(C)Cc2cc(NC(=O)c3cnn4cccnc34)c(N3CCC4(CC3)CN(CC(F)F)C4)cc2O1 [Example 248, N-(6-(2-(2,2-Difluoroethyl)-2,7-diazaspiro[3.5]nonan-7-yl)-2,2-dimethyl-2,3-dihydrobenzofuran-5-yl)pyrazolo[1,5-a]pyrimidine-3-carboxamide]
2.6 | C[C@H]1CN(C)CC[C@]12Cc1cc(NC(=O)c3cnn4cccnc34)c(N3CCOCC3)cc1O2 [Example 497, N-((2R,3'S)-1′,3′-dimethyl-6-morpholino-3H-spiro[benzofuran-2,4′-piperidin]-5-yl)pyrazolo[1,5-a]pyrimidine-3-carboxamide]
4.4 | CC(C)(O)[C@]1(C)Cc2cc(NC(=O)c3cnn4cccnc34)c(N3CCN(Cc4c[nH]cn4)CC3)cc2O1 [Example 523, N-[(2S)-2-(1-hydroxy-1-methyl-ethyl)-6-[4-(1H-imidazol-4-ylmethyl)piperazin-1-yl]-2-methyl-3H-benzofuran-5-yl]pyrazolo[1,5-a]pyrimidine-3-carboxamide]
780 | CNC[C@H]1OC[C@@H](c2cc3c(cc2NC(=O)c2cnn4cccnc24)CC(C)(C)O3)CO1 [Example 20, Cis-N-[2,2-dimethyl-6-[2-(methylaminomethyl)-1,3-dioxan-5-yl]-3H-benzofuran-5-yl]pyrazolo[1,5-a]pyrimidine-3-carboxamide]
4.2 | CC1(C)Cc2cc(NC(=O)c3cnn4cccnc34)c(N3CCC4(CCCC4O)CC3)cc2O1 (centres unmarked) [Example 109, N-(6-(1-hydroxy-8-azaspiro[4.5]decan-8-yl)-2,2-dimethyl-2,3-dihydrobenzofuran-5-yl)pyrazolo[1,5-a]pyrimidine-3-carboxamide]
66 | CC(C)N1Cc2cc(NC(=O)c3cnn4cc(C#N)cnc34)c(N3CCOCC3)cc2C1=O [Example 485, 6-cyano-N-(2-isopropyl-6-morpholino-1-oxo-isoindolin-5-yl)pyrazolo[1,5-a]pyrimidine-3-carboxamide]
46 | CC1(C)Cc2cc(NC(=O)c3cnn4cccnc34)c(N3CC[N+](C)(CC(N)=O)CC3)cc2O1 [Example 408, 1-(2-Amino-2-oxoethyl)-4-(2,2-dimethyl-5-(pyrazolo[1,5-a]pyrimidine-3-carboxamido)-2,3-dihydrobenzofuran-6-yl)-1-methylpiperazin-1-ium]
24 | CC(C)(CO)N1Cc2cc(NC(=O)c3cnn4cccnc34)c(N3CCOCC3)cc2C1=O [Example 250, N-[2-(2-Hydroxy-1,1-dimethyl-ethyl)-6-morpholino-1-oxo-isoindolin-5-yl]pyrazolo[1,5-a]pyrimidine-3-carboxamide]
1.5 | CC1(C)Cc2cc(NC(=O)c3cnn4cccnc34)c(N3CCC(CO)CC3)cc2O1 [Example 4, N-(6-(4-(Hydroxymethyl)piperidin-1-yl)-2,2-dimethyl-2,3-dihydrobenzofuran-5-yl)pyrazolo[1,5-a]pyrimidine-3-carboxamide]
3.8 | Cc1cnc2c(C(=O)Nc3cc4c(cc3N3CCC(C(C)(C)O)CC3)O[C@@](C)(CO)C4)cnn2c1 [Example 52, (R)—N-(2-(Hydroxymethyl)-6-(4-(2-hydroxypropan-2-yl)piperidin-1-yl)-2-methyl-2,3-dihydrobenzofuran-5-yl)-6-methylpyrazolo[1,5-a]pyrimidine-3-carboxamide]
4 | CNc1cnc2c(C(=O)Nc3cc4c(cc3N3CCN(CC(F)F)CC3)O[C@@](C)(CO)C4)cnn2c1 [Example 382, (R)-N-(6-(4-(2,2-difluoroethyl)piperazin-1-yl)-2-(hydroxymethyl)-2-methyl-2,3-dihydrobenzofuran-5-yl)-6-(methylamino)pyrazolo[1,5-a]pyrimidine-3-carboxamide]
7.3 | C[C@H](O)[C@H](F)CN1Cc2cc(NC(=O)c3cnn4cccnc34)c(N3CCOCC3)cc2C1=O [Example 557, N-[2-[(2R,2S)-2-fluoro-3-hydroxy-butyl]-6-morpholino-1-oxo-isoindolin-5-yl]pyrazolo[1,5-a]pyrimidine-3-carboxamide]
8 | CC1(CO)Cc2cc(NC(=O)c3cnn4cccnc34)c(N3CCC(n4ccnc4)CC3)cc2O1 (single isomer, unassigned) [Example 344, N-(6-(4-(1H-imidazol-1-yl)piperidin-1-yl)-2-(hydroxymethyl)-2-methyl-2,3-dihydrobenzofuran-5-yl)pyrazolo[1,5-a]pyrimidine-3-carboxamide]
28 | CC1(C)Cc2cc(NC(=O)c3cnn4cccnc34)c(N3CCN(CC(=O)NC4CC4)CC3)cc2O1 [Example 242, N-(6-(4-(2-(Cyclopropylamino)-2-oxoethyl)piperazin-1-yl)-2,2-dimethyl-2,3-dihydrobenzofuran-5-yl)pyrazolo[1,5-a]pyrimidine-3-carboxamide]
35 | CC1(C)Cc2cc(NC(=O)c3cnn4cc(C5CC5)cnc34)c(N3CCOCC3)cc2O1 [Example 61, 6-Cyclopropyl-N-(2,2-dimethyl-6-morpholino-3H-benzofuran-5-yl)pyrazolo[1,5-a]pyrimidine-3-carboxamide]
3 | CNc1cnc2c(C(=O)Nc3cc4c(cc3N3CCN(CC(F)F)CC3)O[C@](C)(CO)C4)cnn2c1 [Example 381, (S)-N-(6-(4-(2,2-difluoroethyl)piperazin-1-yl)-2-(hydroxymethyl)-2-methyl-2,3-dihydrobenzofuran-5-yl)-6-(methylamino)pyrazolo[1,5-a]pyrimidine-3-carboxamide]
2.5 | C[C@@]1(CO)Cc2cc(NC(=O)c3cnn4cc(Cl)cnc34)c(N3CCN(CC(F)F)CC3)cc2O1 (single isomer, unassigned) [Example 169]

Compound | Ki [nM]
N-[2,2-Dimethyl-6-[(5-methyl-1H-pyrazol-3-yl)methoxy]-3H-benzofuran-5-yl]pyrazolo[1,5-a]pyrimidine-3-carboxamide [Example 543] | 140
N-(2,2-dimethyl-6-(4-(2-oxo-2-(thiazol-2-ylamino)ethyl)piperazin-1-yl)-2,3-dihydrobenzofuran-5-yl)pyrazolo[1,5-a]pyridine-3-carboxamide [Example 441] | 6
